Experimental data from US20210179680A1, “POLYPEPTIDE, DERIVATIVES THEREOF, AND APPLICATION THEREOF IN PREPARATION OF DRUGS HAVING RESISTANCE TO PULMONARY FIBROSIS” (priority 2016, published 2021).
Bridge positions count the residues as written; N and C are the ends. Square brackets hold non-standard residues; d marks the D form. Peptide text beside a SMILES is read from it. S5 = C=CCCC[C@](C)(N)C(=O)O

Tests used:
Format in all cases: in vivo, C57BL/6 mice
[1] = tested on: mice with bleomycin-induced pulmonary fibrosis; test: Pulmonary function (Flexivent) in mice with pulmonary fibrosis; conditions: Table 3 groups, 2 mg/kg i.p.; for Dynamic compliance (mL/cmH2O) / Dynamic elasticity (cmH2O./mL) / Dynamic resistance (cmH2O · s/Ml) / Inspiratory capacity: 28th day after model construction; for pulmonary function of mice with pulmonary fibrosis (in words): FIG. 11
Protocol: (§1) Male C57BL/6 mice were fasted overnight, then anesthetized with 45 mg/kg sodium pentobarbital by injection intraperitoneally (i.p.), and intratracheally injected with bleomycin at a dose of 3 U/kg. The specific operation steps are as follows: cut the neck skin of the mouse with as little trauma as possible, expose the trachea with the assistance of elbow ophthalmic forceps, puncture the trachea and inject about 50 μL of bleomycin into the trachea with a microsyringe, rotate the mouse quickly and stand it upright for 5 minutes in order to make bleomycin evenly enter the left and right lobe, thereby constructing an animal model. The whole operation was performed at a surgical table at about […]. Mice in the sham operation group were intratracheally injected with an equal amount of physiological saline for injection.
(§2) Pulmonary function is a gold indicator for clinical detection of pulmonary fibrosis in patients. The decline of lung function is generally accompanied by an aggravation of fibrosis, while the improvement of lung function generally represents the recovery of lung tissue structure. Pulmonary fibrosis models were prepared according to the method described in Example 2 and administered in groups according to Table 3. On the 28th day after the construction of the animal model, the mice were anesthetized with sodium pentobarbital (45 mg/kg, i.p.). Lung function was tested by the Flexivent Small-animal respiratory mechanics and the testing methods were TLC and SnapShots (Testing method refers to Lv X, Wang X, Li K, et al. Rupatadine Protects against Pulmonary Fibrosis by Attenuating PAF-Mediated Senescence in Rodents [J]. PloS one, 2013, 8(7): e68631).
as §2, with “lung function also generally represents” for “lung function generally represents”, “to Table 9. 28 days later, the mice” for “to Table 3. On the 28th day after the construction of the animal model, the mice”, “Senescence in Rodents[J]. PloS one,” for “Senescence in Rodents [J]. PloS one,”

[2] = tested on: mice with bleomycin-induced pulmonary fibrosis; test: Hydroxyproline content in lung of mice with pulmonary fibrosis; conditions: Table 3 groups, 2 mg/kg i.p.; left lung lobes; chloramine-T method
Protocol: as §1
(§3) Hydroxyproline accounts for 13.4% (w/w) of collagen, and extremely small amount of elastin, while it is absent in other proteins. […] Pulmonary fibrosis models were prepared according to the method described in Example 2 and administered in groups according to Table 3. The content of hydroxyproline in the lobes of left lung of the animals was measured 28 days later, and the condition of pulmonary fibrosis was evaluated.
The specific method is as follows: the mice in the animal model prepared in Example 2 was feed in a SPF animal room and treated with polypeptide according to the dosing schedule of Table 3, and all left lobes of lung of the experimental animal was taken on the 21st day after the animal model was constructed and the wet weight was recorded. Then 10% (w/w) tissue homogenate was prepared by ultrasonic homogenization using physiological saline. About 150 μL of homogenate supernatant was taken, and 500 μL of alkali hydrolysate was added (provided by Hydroxyproline alkaline hydrolysis kit of Nanjing Jiancheng Bioengineering Technology Co., Ltd.). After vortex mixing, the mixture was treated with alkaline hydrolysis for 40 min under conditions of 120° C., 0.1 Kpa. After adjusting the pH value, the volume was held constant, and the supernatant was taken after performing activated carbon treatment. The hydroxyproline was determined according to the chloramine-T method (the method of the present example refers to the instruction provided with kit, which was purchased from Nanjing Jiancheng Bioengineering Technology Co., Ltd.). […] In FIG. 10, “##” represents that P value is less than 0.01 when comparing the content of hydroxyproline in the administration group with that in the sham operation group; and “*” represents that P value is less than 0.05 and“**” represents that P value is less than 0.01 when comparing the content of hydroxyproline in the administration group with that in bleomycin group.
as §3, with “collagen, and accounts for extremely small” for “collagen, and extremely small”, “in the all lobes of” for “in the lobes of”
The specific method is as follows: the mice in the animal model prepared in Example 2 was feed in an SPF animal room and treated with polypeptide according to the dosing schedule of Table 3, and all the left lobes of lung of the experimental animal was taken on the 21st day after the animal model was constructed and the wet weight was recorded. Then 10% (w/w) tissue homogenate was prepared by ultrasonic homogenization using physiological saline. About 150 μL of homogenate supernatant was taken, and 500 μL of alkali hydrolysate was added (provided by Hydroxyproline alkaline hydrolysis kit of Nanjing Jiancheng Bioengineering Technology Co., Ltd.). After vortex mixing, the mixture was treated with alkaline hydrolysis for 40 min under conditions of 120° C., 0.1 Kpa. […]

[3] = tested on: mice with bleomycin-induced pulmonary fibrosis; test: Lung weight index in mice with pulmonary fibrosis; conditions: Table 3 groups, 2 mg/kg i.p.; after 28 days; lung weight (mg) divided by body weight (g)
Protocol: as §1
Pulmonary fibrosis model was prepared according to the method described in Example 2, and administered in groups according to Table 3. After 28 days, the lungs of the mice were finely stripped and weighed, and a lung weight index was obtained from dividing the lung weight (mg) by the body weight (g) of the mice. […] In FIG. 7, “##” represents that P value is less than 0.01 when the lung weight index of administration group was compared with that of the sham operation group; “*” represents that P value is less than 0.05 when the lung weight index of administration group was compared with that of the bleomycin group; “**” represents that P value is less than 0.01 when the lung weight index of administration group was compared with that of bleomycin group.
Pulmonary fibrosis models were made according to the method described in Example 2 and administered in groups according to Table 9. After 28 days, the lungs of the mice were finely stripped and weighed, and the lung weight (mg) was divided by the body weight (g) of the mice to obtain a lung weight index. […] In FIG. 13, “##” represents that P value is less than 0.01 when the lung weight index of the administration groups were compared with that of the sham operation group; “*” represents that P value is less than 0.05 and “**” represents that P value is less than 0.01 when the lung weight index of the administration groups were compared with bleomycin group.

Compound	Dynamic compliance (mL/cmH2O) [1]	Dynamic elasticity (cmH2O./mL) [1]	Dynamic resistance (cmH2O · s/Ml) [1]	Inspiratory capacity [1]	pulmonary function of mice with pulmonary fibrosis (in words) [1]	hydroxyproline content (μg/mg protein) [2]	Lung weight index [3]
CSCC[C@H](NC(=O)[C@H](CC(C)C)NC(=O)[C@@H](N)Cc1c[nH]cn1)C(=O)N[C@@H](C)C(=O)N[C@@H](CS)C(=O)N[C@@]1(C)CCCC=CCCC[C@@](C)(C(=O)N[C@@H](CCCCN)C(=O)N[C@@H](CC(C)C)C(=O)N[C@@H](CCCCN)C(=O)N[C@@H](CCCCN)C(=O)N[C@@H](CCCNC(=N)N)C(=O)O)NC(=O)[C@H](C)NC(=O)[C@H](CS)NC(=O)[C@H]([C@@H](C)O)NC1=O [S6, His-Leu-Met-Ala-Cys-S5-Thr-Cys-Ala-S5-Lys-Leu-Lys-Lys-Arg] (H-HLMAC[S5]TCA[S5]KLKKR-OH; staple 6-10; N-terminus and C-terminus assumed)	0.2683 mL/cmH2O	52.17 cmH2O./mL	1.067 cmH2O · s/Ml	0.558 mL	improved	0.8337 μg/mg protein	9.725
CSCC[C@H](NC(=O)[C@H](CC(C)C)NC(=O)[C@@H](N)Cc1c[nH]cn1)C(=O)N[C@@H](C)C(=O)N[C@@H](CS)C(=O)N[C@@H](Cc1ccccc1)C(=O)N[C@@]1(C)CCCC=CCCC[C@@](C)(C(=O)N[C@@H](CC(C)C)C(=O)N[C@@H](CCCCN)C(=O)N[C@@H](CCCCN)C(=O)N[C@@H](CCCNC(=N)N)C(=O)O)NC(=O)[C@H](CCCCN)NC(=O)[C@H](C)NC(=O)[C@H](CS)NC1=O [S7, His-Leu-Met-Ala-Cys-Phe-S5-Cys-Ala-Lys-S5-Leu-Lys-Lys-Arg] (H-HLMACF[S5]CAK[S5]LKKR-OH; staple 7-11; N-terminus and C-terminus assumed)	0.29 mL/cmH2O	51 cmH2O./mL	0.8833 cmH2O · s/Ml	0.684 mL	improved	0.655 μg/mg protein	7.675
CSCC[C@H](NC(=O)[C@H](CC(C)C)NC(=O)[C@@H](N)Cc1c[nH]cn1)C(=O)N[C@@H](C)C(=O)N[C@@H](CS)C(=O)N[C@@H](Cc1ccccc1)C(=O)N[C@H](C(=O)N[C@@]1(C)CCCC=CCCC[C@@](C)(C(=O)N[C@@H](CCCCN)C(=O)N[C@@H](CCCCN)C(=O)N[C@@H](CCCNC(=N)N)C(=O)O)NC(=O)[C@H](CCCCN)NC(=O)[C@H](CCCCN)NC(=O)[C@H](C)NC1=O)[C@@H](C)O [S8, His-Leu-Met-Ala-Cys-Phe-Thr-S5-Ala-Lys-Lys-S5-Lys-Lys-Arg] (H-HLMACFT[S5]AKK[S5]KKR-OH; staple 8-12; N-terminus and C-terminus assumed)	0.2583 mL/cmH2O	66.5 cmH2O./mL	1.35 cmH2O · s/Ml	0.626 mL	improved	0.825 μg/mg protein	8.775
CSCC[C@H](NC(=O)[C@H](CC(C)C)NC(=O)[C@@H](N)Cc1c[nH]cn1)C(=O)N[C@@H](C)C(=O)N[C@@H](CS)C(=O)N[C@@H](Cc1ccccc1)C(=O)N[C@H](C(=O)N[C@@H](CS)C(=O)N[C@@]1(C)CCCC=CCCC[C@@](C)(C(=O)N[C@@H](CCCCN)C(=O)N[C@@H](CCCNC(=N)N)C(=O)O)NC(=O)[C@H](CC(C)C)NC(=O)[C@H](CCCCN)NC(=O)[C@H](CCCCN)NC1=O)[C@@H](C)O [S9, His-Leu-Met-Ala-Cys-Phe-Thr-Cys-S5-Lys-Lys-Leu-S5-Lys-Arg] (H-HLMACFTC[S5]KKL[S5]KR-OH; staple 9-13; N-terminus and C-terminus assumed)	0.27 mL/cmH2O	44.5 cmH2O./mL	1.033 cmH2O · s/Ml	0.686 mL	improved	0.7212 μg/mg protein	7.4125
CSCC[C@H](NC(=O)[C@H](CC(C)C)NC(=O)[C@@H](N)Cc1c[nH]cn1)C(=O)N[C@@H](C)C(=O)N[C@@H](CS)C(=O)N[C@@H](Cc1ccccc1)C(=O)N[C@H](C(=O)N[C@@H](CS)C(=O)N[C@@H](C)C(=O)N[C@@]1(C)CCCC=CCCC[C@@](C)(C(=O)N[C@@H](CCCNC(=N)N)C(=O)O)NC(=O)[C@H](CCCCN)NC(=O)[C@H](CC(C)C)NC(=O)[C@H](CCCCN)NC1=O)[C@@H](C)O [S10, His-Leu-Met-Ala-Cys-Phe-Thr-Cys-Ala-S5-Lys-Leu-Lys-S5-Arg] (H-HLMACFTCA[S5]KLK[S5]R-OH; staple 10-14; N-terminus and C-terminus assumed)	0.2333 mL/cmH2O	49.5 cmH2O./mL	1.367 cmH2O · s/Ml	0.562 mL	improved	0.8163 μg/mg protein	8.8875
CSCC[C@H](NC(=O)[C@H](CC(C)C)NC(=O)[C@@H](N)Cc1c[nH]cn1)C(=O)N[C@@H](C)C(=O)N[C@@H](CS)C(=O)N[C@@H](Cc1ccccc1)C(=O)N[C@H](C(=O)N[C@@H](CS)C(=O)N[C@@H](C)C(=O)N[C@@H](CCCCN)C(=O)N[C@@]1(C)CCCC=CCCC[C@@](C)(C(=O)O)NC(=O)[C@H](CCCCN)NC(=O)[C@H](CCCCN)NC(=O)[C@H](CC(C)C)NC1=O)[C@@H](C)O [S11, His-Leu-Met-Ala-Cys-Phe-Thr-Cys-Ala-Lys-S5-Leu-Lys-Lys-S5] (H-HLMACFTCAK[S5]LKK[S5]-OH; staple 11-15; N-terminus and C-terminus assumed)	0.235 mL/cmH2O	53 cmH2O./mL	1.267 cmH2O · s/Ml	0.658 mL	improved	0.7725 μg/mg protein	9.2875
